Earlier results, collected in patent US8772346B2, “Pharmaceutical composition” (Torrent Pharmaceuticals Limited, priority 2005, dated 2014).
Like-named read-outs stand apart in the source and are kept apart here.

Details: HP-β-CD (10% w/v)

- increase of aqueous solubility of entacapone by complexation with HP-β-CD (pH 3.0): 12 fold
- increase of aqueous solubility of entacapone by complexation with HP-β-CD (pH 5.0): 85 fold
SMILES: CCN(CC)C(=O)/C(C#N)=C/c1cc(O)c(O)c([N+](=O)[O-])c1 [entacapone]
